System: KRAS-mutant PDC tumor spheroid with HUVEC/MSC, viability
Test: Anticancer human tumor 327498-153-R-J2-PDC patient-derived uterine carcinosarcoma cell line growth inhibition [KRAS2]
Details: for IC50: curve of first compound; for viability, T/C: stronger effect = lower value
In short: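 Combination screen of spheroid viability in tumor-cell co-cultures with endothelial (HUVEC) and mesenchymal stem cell stroma. Each agent was tested in half-log dilutions, topping at clinical Cmax or at 10 microM without a known Cmax.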

[1] = second compound 0.0316 µM, first compound 0.0316 µM
[2] = second compound 0.0316 µM, first compound 0.1 µM
[3] = second compound 0.0316 µM, first compound 0.316 µM
[4] = second compound 0.0316 µM, first compound 1 µM
[5] = second compound 0.0316 µM, first compound 3.16 µM
[6] = second compound 0.0316 µM, first compound 10 µM
[7] = second compound 0.1 µM, first compound 0.0316 µM
[8] = second compound 0.1 µM, first compound 0.1 µM
[9] = second compound 0.1 µM, first compound 0.316 µM
[10] = second compound 0.1 µM, first compound 1 µM
[11] = second compound 0.1 µM, first compound 3.16 µM
[12] = second compound 0.1 µM, first compound 10 µM
[13] = second compound 0.316 µM, first compound 0.0316 µM
[14] = second compound 0.316 µM, first compound 0.1 µM
[15] = second compound 0.316 µM, first compound 0.316 µM
[16] = second compound 0.316 µM, first compound 1 µM
[17] = second compound 0.316 µM, first compound 3.16 µM
[18] = second compound 0.316 µM, first compound 10 µM
[19] = second compound 1 µM, first compound 0.0316 µM
[20] = second compound 1 µM, first compound 0.1 µM
[21] = second compound 1 µM, first compound 0.316 µM
[22] = second compound 1 µM, first compound 1 µM
[23] = second compound 1 µM, first compound 3.16 µM
[24] = second compound 1 µM, first compound 10 µM
[25] = second compound 3.16 µM, first compound 0.0316 µM
[26] = second compound 3.16 µM, first compound 0.1 µM
[27] = second compound 3.16 µM, first compound 0.316 µM
[28] = second compound 3.16 µM, first compound 1 µM
[29] = second compound 3.16 µM, first compound 3.16 µM
[30] = second compound 3.16 µM, first compound 10 µM
[31] = second compound 0.0316 µM, first compound 0.000316 µM
[32] = second compound 0.0316 µM, first compound 0.001 µM
[33] = second compound 0.0316 µM, first compound 0.00316 µM
[34] = second compound 0.0316 µM, first compound 0.01 µM
[35] = second compound 0.1 µM, first compound 0.000316 µM
[36] = second compound 0.1 µM, first compound 0.001 µM
[37] = second compound 0.1 µM, first compound 0.00316 µM
[38] = second compound 0.1 µM, first compound 0.01 µM
[39] = second compound 0.316 µM, first compound 0.000316 µM
[40] = second compound 0.316 µM, first compound 0.001 µM
[41] = second compound 0.316 µM, first compound 0.00316 µM
[42] = second compound 0.316 µM, first compound 0.01 µM
[43] = second compound 1 µM, first compound 0.000316 µM
[44] = second compound 1 µM, first compound 0.001 µM
[45] = second compound 1 µM, first compound 0.00316 µM
[46] = second compound 1 µM, first compound 0.01 µM
[47] = second compound 3.16 µM, first compound 0.000316 µM
[48] = second compound 3.16 µM, first compound 0.001 µM
[49] = second compound 3.16 µM, first compound 0.00316 µM
[50] = second compound 3.16 µM, first compound 0.01 µM
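Also: spheroids exposed to agents for seven days before reading.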
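For viability, T/C in this document: 100% = DMSO vehicle wells so lower means fewer viable cells.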

CC(C)NCC(C(=O)N1CCN(c2ncnc3c2C(C)CC3O)CC1)c1ccc(Cl)cc1 (stereo not given) + C=CC(=O)N1CCN(c2nc(OCC3CCCN3C)nc3c2CCN(c2cccc4cccc(C)c24)C3)CC1CC#N was tested, and the IC50 (second compound 0.0316 µM) was 66.9 nM, the IC50 (second compound 0.1 µM) was under 31.6 nM and the IC50 (second compound 0.316 µM) was under 31.6 nM. It also gave an IC50 (second compound 1 µM) of under 31.6 nM, an IC50 (second compound 3.16 µM) of under 31.6 nM and a viability, T/C [1] of 59.5%. For the same compound, the viability, T/C [2] was 44.3%, the viability, T/C [3] was 32.8% and the viability, T/C [4] was 22.8%. It also gave a viability, T/C [5] of 15.5%, a viability, T/C [6] of 9.69% and a viability, T/C [7] of 48.7%. For the same compound, the viability, T/C [8] was 32.4%, the viability, T/C [9] was 22.1% and the viability, T/C [10] was 15.7%. For the same compound, the viability, T/C [11] was 12.7%, the viability, T/C [12] was 11.4% and the viability, T/C [13] was 42.5%. It also gave a viability, T/C [14] of 29.8%, a viability, T/C [15] of 18.3% and a viability, T/C [16] of 13.5%. It also gave a viability, T/C [17] of 12.3%, a viability, T/C [18] of 7.28% and a viability, T/C [19] of 34.5%. It also gave a viability, T/C [20] of 25.2%, a viability, T/C [21] of 15.1% and a viability, T/C [22] of 12.6%. The viability, T/C [23] was 9.14%, the viability, T/C [24] was 6.92% and the viability, T/C [25] was 0.26%. It also gave a viability, T/C [26] of 0.41%, a viability, T/C [27] of 0.51% and a viability, T/C [28] of 0.15%. For the same compound, the viability, T/C [29] was 0.14% and the viability, T/C [30] was 0.21%.

Compound CC(C)n1nc(-c2ccc3oc(N)nc3c2)c2c(N)ncnc21 + C=CC(=O)N1CCN(c2nc(OCC3CCCN3C)nc3c2CCN(c2cccc4cccc(C)c24)C3)CC1CC#N has an IC50 (second compound 0.0316 µM) of 1.03 nM, an IC50 (second compound 0.1 µM) of 0.342 nM and an IC50 (second compound 0.316 µM) of 0.586 nM. It also gave an IC50 (second compound 1 µM) of under 0.316 nM, an IC50 (second compound 3.16 µM) of under 0.316 nM and a viability, T/C [31] of 62.7%. The viability, T/C [32] was 49.2%, the viability, T/C [33] was 35.1% and the viability, T/C [34] was 17.8%. For the same compound, the viability, T/C [1] was 8.35%, the viability, T/C [2] was 5.42% and the viability, T/C [35] was 51.6%. The viability, T/C [36] was 35.8%, the viability, T/C [37] was 28.4% and the viability, T/C [38] was 17.2%. It also gave a viability, T/C [7] of 8.1%, a viability, T/C [8] of 4.85% and a viability, T/C [39] of 57.3%. The viability, T/C [40] was 43.7%, the viability, T/C [41] was 28.8% and the viability, T/C [42] was 15.8%. The viability, T/C [13] was 9.55%, the viability, T/C [14] was 4.33% and the viability, T/C [43] was 46.5%. For the same compound, the viability, T/C [44] was 33%, the viability, T/C [45] was 22.6% and the viability, T/C [46] was 13.2%. It also gave a viability, T/C [19] of 4.83%, a viability, T/C [20] of 3.23% and a viability, T/C [47] of 0.28%. For the same compound, the viability, T/C [48] was 0.25%, the viability, T/C [49] was 0.22% and the viability, T/C [50] was 0.14%. The viability, T/C [25] was 0.14% and the viability, T/C [26] was 0.21%.

For CC1(C)CCC(CN2CCN(c3ccc(C(=O)NS(=O)(=O)c4ccc(NCC5CCOCC5)c([N+](=O)[O-])c4)c(Oc4cnc5[nH]ccc5c4)c3)CC2)=C(c2ccc(Cl)cc2)C1 + C=CC(=O)N1CCN(c2nc(OCC3CCCN3C)nc3c2CCN(c2cccc4cccc(C)c24)C3)CC1CC#N, the IC50 (second compound 0.0316 µM) was 1990 nM, the IC50 (second compound 0.1 µM) was 1650 nM and the IC50 (second compound 0.316 µM) was 1100 nM. The IC50 (second compound 1 µM) was under 31.6 nM, the IC50 (second compound 3.16 µM) was under 31.6 nM and the viability, T/C [1] was 70.1%. The viability, T/C [2] was 66.6%, the viability, T/C [3] was 72.7% and the viability, T/C [4] was 63.8%. It also gave a viability, T/C [5] of 40.2%, a viability, T/C [6] of 8.7% and a viability, T/C [7] of 56.8%. It also gave a viability, T/C [8] of 59.2%, a viability, T/C [9] of 52% and a viability, T/C [10] of 53%. For the same compound, the viability, T/C [11] was 45.9%, the viability, T/C [12] was 12.1% and the viability, T/C [13] was 48.7%. It also gave a viability, T/C [14] of 49%, a viability, T/C [15] of 58.4% and a viability, T/C [16] of 52.2%. For the same compound, the viability, T/C [17] was 27.3%, the viability, T/C [18] was 1.57% and the viability, T/C [19] was 44.5%. The viability, T/C [20] was 44.1%, the viability, T/C [21] was 44.9% and the viability, T/C [22] was 48%. The viability, T/C [23] was 18.5%, the viability, T/C [24] was 0.31% and the viability, T/C [25] was 1.15%. For the same compound, the viability, T/C [26] was 1.18%, the viability, T/C [27] was 0.54% and the viability, T/C [28] was 0.45%. The viability, T/C [29] was 1.03% and the viability, T/C [30] was 0.39%.

Cn1ncnc1[C@H]1c2n[nH]c(=O)c3cc(F)cc(c23)N[C@@H]1c1ccc(F)cc1 + C=CC(=O)N1CCN(c2nc(OCC3CCCN3C)nc3c2CCN(c2cccc4cccc(C)c24)C3)CC1CC#N was tested, and the IC50 (second compound 0.0316 µM) was 7.27 nM, the IC50 (second compound 0.1 µM) was 3.84 nM and the IC50 (second compound 0.316 µM) was 1.97 nM. It also gave an IC50 (second compound 1 µM) of under 0.316 nM, an IC50 (second compound 3.16 µM) of under 0.316 nM and a viability, T/C [31] of 77.5%. The viability, T/C [32] was 69.2%, the viability, T/C [33] was 63.3% and the viability, T/C [34] was 45.2%. For the same compound, the viability, T/C [1] was 28.2%, the viability, T/C [2] was 16.9% and the viability, T/C [35] was 54.5%. It also gave a viability, T/C [36] of 57.5%, a viability, T/C [37] of 54.3% and a viability, T/C [38] of 35.2%. It also gave a viability, T/C [7] of 21.9%, a viability, T/C [8] of 14.6% and a viability, T/C [39] of 56.1%. For the same compound, the viability, T/C [40] was 48.5%, the viability, T/C [41] was 49.8% and the viability, T/C [42] was 32.8%. For the same compound, the viability, T/C [13] was 18.7%, the viability, T/C [14] was 13.7% and the viability, T/C [43] was 44%. For the same compound, the viability, T/C [44] was 53.7%, the viability, T/C [45] was 37.1% and the viability, T/C [46] was 25.4%. It also gave a viability, T/C [19] of 17.1%, a viability, T/C [20] of 12.3% and a viability, T/C [47] of 0.23%. The viability, T/C [48] was 0.18%, the viability, T/C [49] was 0.94% and the viability, T/C [50] was 0.16%. The viability, T/C [25] was 0.18% and the viability, T/C [26] was 0.22%.

— PubChem BioAssay AID1963867 (Molecular Pharmacology Branch, DTP, NCI, 2024)
